# Reference: article PMC4490394 (Scientific Reports, 2015)
# Where a chain is given by its changes, count along the chain named. pIC50: −log10 of the molar value. Several values for one entry are separate records, joined by “and”; a condition that tells them apart may be missing. Equal values may be shown once. Read-outs that look alike come from different tables or passages of the source.
# Assays:
# VCaP cells = test: VCaP proliferation assay (WST-1); type: cell-based; conditions: Homo sapiens, 96 h
# AR(F876L) = molecular target: T1, AR(F876L) (Homo sapiens, UniProt P10275, F877L)
# T1 sequence (P10275 1-920 F877L): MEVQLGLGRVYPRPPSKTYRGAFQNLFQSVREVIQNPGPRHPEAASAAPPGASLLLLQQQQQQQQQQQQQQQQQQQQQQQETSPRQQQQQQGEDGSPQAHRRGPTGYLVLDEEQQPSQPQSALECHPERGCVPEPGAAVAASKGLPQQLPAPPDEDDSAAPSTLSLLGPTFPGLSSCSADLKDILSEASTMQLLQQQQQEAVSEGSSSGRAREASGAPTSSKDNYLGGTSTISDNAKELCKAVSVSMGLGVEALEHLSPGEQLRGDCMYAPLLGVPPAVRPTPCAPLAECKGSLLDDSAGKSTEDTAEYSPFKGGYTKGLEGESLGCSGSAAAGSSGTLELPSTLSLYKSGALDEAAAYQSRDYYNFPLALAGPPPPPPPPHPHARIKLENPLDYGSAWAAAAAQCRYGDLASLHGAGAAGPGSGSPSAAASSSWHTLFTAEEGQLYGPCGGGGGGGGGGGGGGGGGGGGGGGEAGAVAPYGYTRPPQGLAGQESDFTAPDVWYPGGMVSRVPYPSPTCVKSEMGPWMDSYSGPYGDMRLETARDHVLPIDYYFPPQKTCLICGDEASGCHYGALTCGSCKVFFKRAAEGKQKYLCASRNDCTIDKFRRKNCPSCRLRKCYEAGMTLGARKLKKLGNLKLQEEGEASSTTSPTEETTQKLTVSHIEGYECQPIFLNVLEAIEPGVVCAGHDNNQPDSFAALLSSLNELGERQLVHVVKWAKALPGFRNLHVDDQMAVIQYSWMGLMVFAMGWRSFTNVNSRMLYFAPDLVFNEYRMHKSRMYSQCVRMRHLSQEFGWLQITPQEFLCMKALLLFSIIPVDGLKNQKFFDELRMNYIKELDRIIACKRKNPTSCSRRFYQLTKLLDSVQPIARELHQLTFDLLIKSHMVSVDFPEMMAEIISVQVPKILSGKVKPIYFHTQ
# AR(W741L) = molecular target: T2, AR(W741L) (Homo sapiens, UniProt P10275, W742L)
# T2 sequence (P10275 1-920 W742L): T1 sequence (P10275 1-920 F877L) with W742L, L877F
# AR(T877A) = molecular target: T3, AR(T877A) (Homo sapiens, UniProt P10275, T878A)
# T3 sequence (P10275 1-920 T878A): T1 sequence (P10275 1-920 F877L) with L877F, T878A
# [1] = tested on: AR nuclear translocation in HS-HEK293 cells; conditions: 0.3 or 1.0 μM test compound with 0.3 nM testosterone, HS-HEK293 cells
# [2] = Brain penetrance, brain/plasma ratio from AUC0-24; type: in vivo; conditions: male, BALB/c or Balb/cOlaHsd nude, mouse, mice, single oral dose of 10 mg/kg, based on AUC0–24
# subcutaneous VCaP tumors = test: Castration-resistant VCaP xenograft, tumor volume; type: in vivo, castrated nude mice
# [3] = Pharmacokinetic parameters in mice after 7 days oral dosing; type: in vivo; conditions: male, BALB/c or Balb/cOlaHsd nude, mouse, plasma, 20 mg/kg qd oral, read-out: AUC24
# Method: Control mice received vehicle. […] Brain samples (without olfactory bulbs and medulla oblongata) from each group and time point were pooled and homogenized before the analysis. […] Plasma and brain concentration vs. time were evaluated by noncompartmental analysis using WinNonlin® Professional v. 5.2 software (Pharsight Corporation). Brain/plasma ratios were calculated based on AUC0–24 values for plasma and brain.
# serum testosterone = test: Serum testosterone in intact nude mice bearing orthotopic VCaP tumors; type: in vivo; conditions: 20 mg/kg qd oral, 3 weeks, p < 0.05 vs vehicle
# Method: One million VCaP cells in 20 μL of RPMI-1640 medium were orthotopically injected into the dorsal prostate lobes of athymic nude male mice (7 weeks old from Harlan Winkelman, France). Tumor growth was followed by measuring serum PSA (ProStatus™ PSA EQM Kits, Wallac, Finland). […] At autopsy, blood samples were collected by heart puncture, clotted overnight at +4 °C, and centrifuged. For serum testosterone determination, 25-μL aliquots were extracted twice with 2 mL of diethyl ether and evaporated under nitrogen to dryness. The residues were reconstituted in PBS and measured using a standard radioimmunoassay as described previously.
# [4] = Body weight of mice bearing subcutaneous VCaP xenograft tumors; type: in vivo, castrated nude mice; conditions: enzalutamide 20 mg/kg qd oral, individual animals, vs BW before treatment
# Method: BALB/c nude male mice (7 weeks old from Charles River, Germany) were subcutaneously injected with 2 million VCaP cells in 100 μL of RPMI-1640 medium and Matrigel (BD) (1:1). Tumor growth was monitored twice weekly by caliper measurements. The volume of the tumor was calculated according to the formula W^2 × L/2 (mm^3), where W is the shorter and L the longer diameter of the tumor. When the average tumor volume reached ~200 mm^3, mice were castrated or SHAM-operated under Avertin anesthesia. […] For all in vivo studies, Macrocol® (Merck) + propylene glycol +5% glucose (50:30:20, v/v/v) was used as a vehicle.
# [5] = set-up: method as in PMID 15470213; conditions: CRPC ref 7; cited from earlier work
smiles,measurement,setting,value
CC(=O)c1cc(C(=O)N[C@@H](C)Cn2ccc(-c3ccc(C#N)c(Cl)c3)n2)n[nH]1 [ORM-15341],pIC50,"VCaP cells; 0.1 nM mibolerone, steroid-depleted medium, 4 days, WST-1, read-out: IC50, androgen-induced VCaP cell proliferation",6.77
same,functional activity (agonist/antagonist) on AR(F876L),AR(F876L),full antagonists
same,functional activity (agonist/antagonist) on AR(W741L),AR(W741L),full antagonists
same,functional activity (agonist/antagonist) on AR(T877A),AR(T877A),full antagonists
same,effect on testosterone-induced nuclear translocation of AR,[1],inhibit
"CNC(=O)c1ccc(N2C(=S)N(c3cnc(C#N)c(C(F)(F)F)c3)C(=O)C23CCC3)cc1F [ARN-509, reference compound]",pIC50,"VCaP cells; read-out: IC50, androgen-induced VCaP cell proliferation",6.38
same,Kp,[2],0.62
"CNC(=O)c1ccc(N2C(=S)N(c3ccc(C#N)c(C(F)(F)F)c3)C(=O)C2(C)C)cc1F [Enzalutamide, enzalutamide, reference compound]",antitumor activity (tumor volume),"subcutaneous VCaP tumors; 20 mg/kg oral once daily, 37 days, p < 0.05 vs castrated untreated mice",inhibition of tumor growth
same,AUC,[3],479 µg·h/mL
same,effect on serum testosterone levels,serum testosterone,increased significantly
same,Change in body weight (%) d 3,[4],0.0% (2×) and -6.2% and -2.7% and -0.6% and -0.5% and -2.0% and 1.3% and 0.5%
same,Change in body weight (%) d 9,[4],0.4% and 1.7% (2×) and 3.6% and 0.6% and 1.3% and 2.9% and 1.5% and 0.5%
same,Change in body weight (%) d 16,[4],1.8% (2×) and 1.2% and 3.0% and 2.6% and 6.8% and 5.6% and 5.5% and 8.7%
same,Change in body weight (%) d 23,[4],1.0% and -4.8% and -1.4% and 1.8% and -2.2% and -0.9% and -2.9% and -3.0%
same,Change in body weight (%) d 30,[4],2.1% and -4.0% and -2.7% and 3.0% and 0.9% and 1.9% and -2.0% and -0.9%
same,Change in body weight (%) d 37,[4],5.1% and -0.9% and 0.5% (2×) and 3.6% and 3.5% and 7.2% and 1.3%
CC(=O)O[C@@]12CO[C@@H]1C[C@H](O)[C@@]1(C)C(=O)[C@H](O)C3=C(C)[C@@H](OC(=O)[C@H](O)[C@@H](NC(=O)OC(C)(C)C)c4ccccc4)C[C@@](O)([C@@H](OC(=O)c4ccccc4)[C@H]21)C3(C)C [docetaxel],median prolongation of survival,[5],2.9 months
"CC(O)(CS(=O)(=O)c1ccc(F)cc1)C(=O)Nc1ccc(C#N)c(C(F)(F)F)c1 (stereo not shown) [bicalutamide, reference compound]",antitumor activity,"subcutaneous VCaP tumors; 20 mg/kg per os, data not shown",does not have any antitumor activity
same,effect on testosterone-induced nuclear translocation of AR,[1],failed to block
